In US5210193A, “Piperazine derivatives” (American Cyanamid Company, priority 1990, dated 1993):
Values after ≈ are worked out from the molar mass of the structure shown. Where two headings read alike, the source gives them in different places.

Columns and labels:
Assay in all cases: in vitro antibacterial MIC, agar plate dilution
Assay type in all cases: cell-based
Escherichia coli LL 311 = settings: Escherichia coli, LL311, 18 h, 35° C., read-out: MIC
How it was run: (§1)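 Agar plate dilution on Mueller-Hinton agar, inoculum approximately 10^4 CFU per organism applied with a Steers replicator. MIC (mcg/ml) is the lowest compound concentration inhibiting visible growth after 18 hours at 35° C.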

[1] = system: Streptococcus faecalis UCI 85-30; settings: Enterococcus faecalis, UCI8530, 18 h, 35° C., read-out: MIC
How it was run: as §1

[2] = system: Enterobacter cloacae K 84-10; settings: Enterobacter cloacae, K8410, 18 h, 35° C., read-out: MIC
How it was run: as §1

Citrobacter div. K 82-24 = settings: Citrobacter, DIV.K8224, 18 h, 35° C., read-out: MIC
How it was run: as §1

[3] = system: Enterobacter cloacae MOR 84-30; settings: Enterobacter cloacae, MOR8430, 18 h, 35° C., read-out: MIC
How it was run: as §1

[4] = system: Streptococcus faecalis CMC 83-120; settings: Enterococcus faecalis, CMC83120, 18 h, 35° C., read-out: MIC
How it was run: as §1

[5] = system: Morganella morganii MOR 84-45; settings: Morganella morganii, MOR8445, 18 h, 35° C., read-out: MIC
How it was run: as §1

[6] = system: Streptococcus faecalis VGH 84-65; settings: Enterococcus faecalis, VGH8465, 18 h, 35° C., read-out: MIC
How it was run: as §1

[7] = system: Escherichia coli MOR 84-20; settings: 35° C.
How it was run: as §1

[8] = system: Klebsiella pneumoniae MOR 84-24; settings: Klebsiella pneumoniae, MOR8424, 18 h, 35° C., read-out: MIC
How it was run: as §1

[9] = system: Streptococcus faecalis VGH 84-69; settings: Enterococcus faecalis, VGH8469, 18 h, 35° C., read-out: MIC
How it was run: as §1

[10] = system: Streptococcus faecalis UCI 85-19; settings: Enterococcus faecalis, UCI8519, 18 h, 35° C., read-out: MIC
How it was run: as §1

[11] = system: Morganella morganii VHG 84-12; settings: Morganella morganii, VHG8412, 18 h, Morganella morganii VHG 84-12 (VGH 84-12 for Example 131), 35° C., read-out: MIC
How it was run: as §1

[12] = system: Staphylococcus aureus VGH 84-47; settings: 35° C.
How it was run: as §1

[13] = system: Staphylococcus aureus VGH 84-45; settings: Staphylococcus aureus, VGH8445, 18 h, 35° C., read-out: MIC
How it was run: as §1

[14] = system: Proteus rettgeri IO 83-21; settings: Providencia rettgeri, IO8321, 18 h, 35° C., read-out: MIC
How it was run: as §1

[15] = system: Enterobacter cloacae VGH 84-39; settings: Enterobacter cloacae, VGH8439, 18 h, 35° C., read-out: MIC
How it was run: as §1

[16] = system: Providencia stuarti CMC 83-3; settings: Providencia, CMC833, 18 h, 35° C., read-out: MIC
How it was run: as §1

[17] = system: Staphylococcus aureus CMC 83-131; settings: Staphylococcus aureus, CMC83131, 18 h, 35° C., read-out: MIC
How it was run: as §1

[18] = system: Escherichia coli VGH 84-19; settings: 35° C.
How it was run: as §1

[19] = system: Proteus rettgeri CMC 84-41; settings: Providencia rettgeri, CMC8441, 18 h, 35° C., read-out: MIC
How it was run: as §1

[20] = system: Klebsiella pneumoniae IO 83-5; settings: Klebsiella pneumoniae, IO835, 18 h, 35° C., read-out: MIC
How it was run: as §1

[21] = system: Serratia marcescens K 84-18; settings: Serratia marcescens, K8418, 18 h, 35° C., read-out: MIC
How it was run: as §1

[22] = system: Pseudomonas aeruginosa VGH 84-3; settings: Pseudomonas aeruginosa, VGH843, 18 h, 35° C., read-out: MIC
How it was run: as §1

[23] = system: Pseudomonas aeruginosa VGH 84-4; settings: Pseudomonas aeruginosa, VGH844, 18 h, 35° C., read-out: MIC
How it was run: as §1

[24] = system: Morganella morganii CMC 84-37; settings: 35° C.
How it was run: as §1

[25] = system: Escherichia coli CMC 84-50; settings: Escherichia coli, CMC8450, 18 h, 35° C., read-out: MIC
How it was run: as §1

[26] = system: Serratia marcescens MOR 84-41; settings: Serratia marcescens, MOR8441, 18 h, 35° C., read-out: MIC
How it was run: as §1

[27] = system: Serratia marcescens CMC 83-74; settings: Serratia marcescens, CMC8374, 18 h, 35° C., read-out: MIC
How it was run: as §1

[28] = system: Staphylococcus aureus Smith; settings: Staphylococcus aureus, 18 h, 35° C., read-out: MIC
How it was run: as §1

[29] = system: Morganella morganii CMC 84-38; settings: Morganella morganii, CMC8438, 18 h, 35° C., read-out: MIC
How it was run: as §1

[30] = system: Staphylococcus aureus K 82-26; settings: Staphylococcus aureus, K8226, 18 h, 35° C., read-out: MIC
How it was run: as §1

[31] = system: Pseudomonas aeruginosa CMC 83-20; settings: Pseudomonas aeruginosa, CMC8320, 18 h, 35° C., read-out: MIC
How it was run: as §1

[32] = system: Klebsiella pneumoniae CMC 84-31; settings: Klebsiella pneumoniae, CMC8431, 18 h, 35° C., read-out: MIC
How it was run: as §1

[33] = system: Pseudomonas aeruginosa K 84-16; settings: Pseudomonas aeruginosa, K8416, 18 h, 35° C., read-out: MIC
How it was run: as §1

[34] = system: Escherichia coli CMC 84-11; settings: Escherichia coli, CMC8411, 18 h, 35° C., read-out: MIC
How it was run: as §1

[35] = system: Pseudomonas aeruginosa LL-1244; settings: Pseudomonas aeruginosa, LL1244, 18 h, 35° C., read-out: MIC
How it was run: as §1

[36] = system: Serratia marcescens VGH 84-30; settings: Serratia marcescens, VGH8430, 18 h, 35° C., read-out: MIC
How it was run: as §1

[37] = system: Escherichia coli ATCC 25922; settings: 35° C.
How it was run: as §1

Structure (SMILES): CCn1cc(C(=O)O)c(=O)c2cc(F)c(N3CCNC(c4ccncc4)C3)c(F)c21 (stereo not drawn) [Example 127]
- MIC (Escherichia coli LL 311): 0.5 µg/mL (≈ 1.21 µM)
- MIC [1]: 8 µg/mL (≈ 19.3 µM)
- MIC [2]: 2 µg/mL (≈ 4.83 µM)
- MIC (Citrobacter div. K 82-24): 2 µg/mL (≈ 4.83 µM)
- MIC [3]: 8 µg/mL (≈ 19.3 µM)
- MIC [4]: 4 µg/mL (≈ 9.65 µM)
- MIC [5]: 2 µg/mL (≈ 4.83 µM)
- MIC [6]: 2 µg/mL (≈ 4.83 µM)
- MIC ([7]; Escherichia coli, MOR8420, 18 h, read-out: MIC): 1 µg/mL (≈ 2.41 µM)
- MIC [8]: 4 µg/mL (≈ 9.65 µM)
- MIC [9]: 4 µg/mL (≈ 9.65 µM)
- MIC [10]: 4 µg/mL (≈ 9.65 µM)
- MIC [11]: 4 µg/mL (≈ 9.65 µM)
- MIC ([12]; Staphylococcus aureus, VGH8447, 18 h, read-out: MIC): 0.25 µg/mL (≈ 0.603 µM)
- MIC [13]: 0.12 µg/mL (≈ 0.29 µM)
- MIC [14]: 4 µg/mL (≈ 9.65 µM)
- MIC [15]: 2 µg/mL (≈ 4.83 µM)
- MIC [16]: > 16 µg/mL
- MIC [17]: 0.5 µg/mL (≈ 1.21 µM)
- MIC ([18]; Escherichia coli, VGH8419, 18 h, read-out: MIC): 1 µg/mL (≈ 2.41 µM)
- MIC [19]: 1 µg/mL (≈ 2.41 µM)
- MIC [20]: 4 µg/mL (≈ 9.65 µM)
- MIC [21]: 1 µg/mL (≈ 2.41 µM)
- MIC [22]: > 16 µg/mL
- MIC [23]: 16 µg/mL (≈ 38.6 µM)
- MIC ([24]; Morganella morganii, CMC8437, 18 h, read-out: MIC): 0.5 µg/mL (≈ 1.21 µM)
- MIC [25]: 2 µg/mL (≈ 4.83 µM)
- MIC [26]: 4 µg/mL (≈ 9.65 µM)
- MIC [27]: > 16 µg/mL
- MIC [28]: 0.06 µg/mL (≈ 0.145 µM)
- MIC [29]: 2 µg/mL (≈ 4.83 µM)
- MIC [30]: 8 µg/mL (≈ 19.3 µM)
- MIC [31]: > 16 µg/mL
- MIC [32]: 2 µg/mL (≈ 4.83 µM)
- MIC [33]: > 16 µg/mL
- MIC [34]: 0.5 µg/mL (≈ 1.21 µM)
- MIC [35]: 16 µg/mL (≈ 38.6 µM)
- MIC [36]: 32 µg/mL (≈ 77.2 µM)

Structure (SMILES): O=C(O)c1cn(C2CC2)c2cc(N3CCNC(c4ccccn4)C3)c(F)cc2c1=O (stereo not drawn) [Example 128, 1-Cyclopropyl-6-fluoro-1.4-dihydro-4-oxo-7-[3-(2-pyridinyl) -1-piperazinyl]-3-quinolinecarboxylic acid]
- MIC (Escherichia coli LL 311): 0.06 µg/mL (≈ 0.147 µM)
- MIC ([37]; 18 hours): 0.06 µg/mL (≈ 0.147 µM)
- MIC ([37]; Escherichia coli, ATCC25922, 18 h, read-out: MIC): 0.03 µg/mL (≈ 0.0735 µM)
- MIC [1]: 8 µg/mL (≈ 19.6 µM)
- MIC [2]: 0.12 µg/mL (≈ 0.294 µM)
- MIC (Citrobacter div. K 82-24): 0.25 µg/mL (≈ 0.612 µM)
- MIC [3]: 1 µg/mL (≈ 2.45 µM)
- MIC [4]: 4 µg/mL (≈ 9.79 µM)
- MIC [5]: 0.5 µg/mL (≈ 1.22 µM)
- MIC [6]: 1 µg/mL (≈ 2.45 µM)
- MIC ([7]; 18 hours): 0.25 µg/mL (≈ 0.612 µM)
- MIC [8]: 1 µg/mL (≈ 2.45 µM)
- MIC [9]: 4 µg/mL (≈ 9.79 µM)
- MIC [10]: 2 µg/mL (≈ 4.9 µM)
- MIC [11]: 1 µg/mL (≈ 2.45 µM)
- MIC ([12]; 18 hours): 0.25 µg/mL (≈ 0.612 µM)
- MIC [13]: 0.06 µg/mL (≈ 0.147 µM)
- MIC [14]: 1 µg/mL (≈ 2.45 µM)
- MIC [15]: 0.5 µg/mL (≈ 1.22 µM)
- MIC [16]: > 16 µg/mL
- MIC [17]: 0.5 µg/mL (≈ 1.22 µM)
- MIC ([18]; 18 hours): 0.25 µg/mL (≈ 0.612 µM)
- MIC [19]: 0.12 µg/mL (≈ 0.294 µM)
- MIC [20]: 1 µg/mL (≈ 2.45 µM)
- MIC [21]: 0.5 µg/mL (≈ 1.22 µM)
- MIC [22]: > 16 µg/mL
- MIC [23]: 8 µg/mL (≈ 19.6 µM)
- MIC ([24]; 18 hours): 0.25 µg/mL (≈ 0.612 µM)
- MIC [25]: 0.5 µg/mL (≈ 1.22 µM)
- MIC [26]: 1 µg/mL (≈ 2.45 µM)
- MIC [27]: > 16 µg/mL
- MIC [28]: 0.06 µg/mL (≈ 0.147 µM)
- MIC [29]: 0.5 µg/mL (≈ 1.22 µM)
- MIC [30]: 4 µg/mL (≈ 9.79 µM)
- MIC [31]: 16 µg/mL (≈ 39.2 µM)
- MIC [32]: 0.5 µg/mL (≈ 1.22 µM)
- MIC [33]: 16 µg/mL (≈ 39.2 µM)
- MIC [34]: 0.06 µg/mL (≈ 0.147 µM)
- MIC [35]: 8 µg/mL (≈ 19.6 µM)
- MIC [36]: 8 µg/mL (≈ 19.6 µM)
